From patent publication US9687456B2, “Nutritional compositions for modulating inflammation including exogenous vitamin K2” (NESTEC S.A., priority 2009, dated 2017)

Assays:
Format in all cases: in vivo, Sprague-Dawley rats
plasma TNF-a = assay: LPS-induced inflammation in rats: plasma TNF-a; settings: oral gavage 25 or 50 microgram daily over 7 days, LPS 0.5 mg/kg IP on Day 7, sacrifice four hours later, compared to LPS treated animals
Experimental: (§1) Male Sprague-Dawley rats (175 g) are kept on a 12-h light:dark cycle with food (Harlan-Teklad Rodent Chow, Madison, Wis.) and water provided freely. Animals are administered daily doses of vitamin K2 (MK-7) or saline (control) via oral gavage over 7 days. Stock solutions of vitamin K2 are prepared containing 3.5 g/L HCO-60 and 1 g/L of […] in buffer A (0.15 M NaCl, 0.05 M Tris-HCl, pH 7.5). The K2 is dissolved by sonication during five pulses of 5 set with an amplitude of 6 pm. Solutions thus obtained are clear, homogeneous, and stable. Shortly before vitamin K administration the stock solutions are diluted five times with buffer A, leading to a final HCO-60 concentration of 0.7 g/L. Further dilutions (as required) are made with 0.7 g/L HCO-60 in buffer A. Each dilution step is followed by sonication as described above. In all cases vitamin K2 is administered to the rats in 0.5 mL samples, with either 25 or 50 microgram oral doses.
On the final day (Day 7), rodents are administered vitamin K2 and 2 hours later were given an IP dose of LPS (Escherichia coli serotype O111:B4, L2630, Sigma) intraperitoneally (0.5 mg/kg of body weight). Four hours later animals are sacrificed.

[1] = test system: ribosomal protein S6 (Ser 235/236); assay: LPS-treated rats: mTOR signaling to eIFs, ribosomal protein S6 phosphorylation in gastrocnemius muscle; settings: oral 25 or 50 microgram daily over 7 days, LPS IP, compared to LPS treatment
Experimental: (§2) Male Sprague-Dawley rats (175 g) are kept on a 12-h light:dark cycle with food (Harlan-Teklad Rodent Chow, Madison, Wis.) and water provided freely. Animals are administered daily doses of vitamin K2 (MK-7) or saline (control) via oral gavage over 7 days. Stock solutions of vitamin K2 are prepared containing 3.5 g/L HCO-60 and 1 g/L of […] in buffer A (0.15 M NaCl, 0.05 M Tris-HCl, pH 7.5). The K2 is dissolved by sonication during five pulses of 5 set with an amplitude of 6 pm. Solutions thus obtained are clear, homogeneous, and stable. […]
(§3) Analysis of mTOR Signaling to eIFs—Gastrocnemius muscles are weighed and homogenized in 7 volumes of buffer containing 20 mM HEPES (pH 7.4), 100 mM potassium chloride, 0.2 mM EDTA, 2 mM EGTA, 50 mM sodium fluoride, 50 mM glycerophosphate, 0.1 mM phenylmethylsulfonyl fluoride, 1 mM benzamidine, 1 mM dithiothreitol (DTT), and 0.5 mM sodium vanadate. […] Samples are analyzed for the phosphorylation status of 4E-BP1 (Thr37) and ribosomal protein S6 (Ser 235/236), the anti-phosphospecific antibodies were obtained from Cell Signaling Technology, Beverly, Mass. Additionally, samples are analyzed for phosphorylated IKKα/β (Ser176/180; Cell Signaling Technology) and phosphorylated p65 (Ser536; Cell Signaling Technology).

IKKα/β (Ser176/180) = assay: LPS-treated rats: gastrocnemius muscle immunoblot, phosphorylated IKKα/β; settings: oral 25 or 50 microgram daily over 7 days, LPS IP, compared to LPS treatment
Experimental: as §2, §3

NFκB p65 (Ser536) = assay: LPS-treated rats: gastrocnemius muscle immunoblot, phosphorylated p65; settings: oral 25 or 50 microgram daily over 7 days, LPS IP, compared to LPS treatment
Experimental: as §2, §3

[2] = test system: mixed muscle protein synthesis; assay: LPS-treated rats: fractional rate of mixed muscle protein synthesis (Ks), radioactive phenylalanine incorporation; settings: oral 25 or 50 microgram daily over 7 days, LPS IP, conditions of inflammatory sepsis, compared to LPS treatment
Experimental: as §1, with “doses. […]” for “doses.”
Measurement of Protein Synthesis—The fractional rate of synthesis (Ks) is estimated from the rate of incorporation of radioactive phenylalanine into total mixed muscle protein using the specific radioactivity of serum phenylalanine as representative of the precursor pool. […]

4E-BP1 (Thr37) = assay: LPS-treated rats: mTOR signaling to eIFs, 4E-BP1 phosphorylation in gastrocnemius muscle; settings: oral 25 or 50 microgram daily over 7 days, LPS IP, compared to LPS treatment
Experimental: as §2, §3

SMILES: CC(C)=CCC/C(C)=C/CC/C(C)=C/CC/C(C)=C/CC/C(C)=C/CC/C(C)=C/CC/C(C)=C/CC1=C(C)C(=O)c2ccccc2C1=O [K2, vitamin K2 (MK-7)]
- rise of plasma TNF-a (plasma TNF-a): significant decrease in the rise
- ribosomal protein S6 phosphorylation [1]: abrogates the decrease
- phosphorylation for IKKα/β (IKKα/β (Ser176/180)): significant blunting of the drop in phosphorylation
- NFκB p65 induction (NFκB p65 (Ser536)): significant blunting
- fractional rate of mixed muscle protein synthesis [2]: greater preservation
- 4E-BP1(Thr-37) phosphorylation (4E-BP1 (Thr37)): abrogates the decrease
